This note sets out measurements from patent EP0362304B1, “CHEMICAL SENSORS EMPLOYING CATALYTIC ANTIBODIES” (IGEN, INC., priority 1987, dated 1989).

Assay [1] relates to IgG designated catalytic antibody 48G7, monoclonal antibody elicited to the tetrahedral nitrophenyl phosphonate transition-state analogue (2). Briefly: Antibody-catalysed hydrolysis of carbonate (1), followed by the increase in absorbance at 400 nm (nitrophenolate ion release), Michaelis-Menten kinetics. In kind it is biochemical, BALB/C mice. The method, then: BALB/C mice were immunized with the BSA-phosphonate conjugate emulsified in complete Freund's adjuvant. A fusion was carried out by standard methods using SP2/0 myeloma as the fusion partner. IgG was purified from ascites fluid by affinity chromatography on protein A coupled Sepharose 4B and dialyzed exhaustively against reaction buffer.
The rates of hydrolysis of carbonate I (1) in the presence (kobsd) and the absence (kun) of 4.4 µM antibody were determined as a function of substrate concentration. Carbonate hydrolysis was followed in 10 mM Tris-HCl, pH 8.5 at 30°C, by following the increase in absorbance at 400 nm due to nitrophenolate ion release.

Assay [2] relates to catalytic antibody 48G7. In words: pH-based catalytic antibody biosensor: differential electrode response to MpNPC after incubation in transition state analog. In kind it is biochemical, BALB/C mice. As to conditions: electrodes incubated in 50 µM TSA; pH 8.5 buffer (0.14 M KCl, 0.01 M Tris, 0.02% sodium azide); substrate MpNPC. The text has this: A pH-based catalytic antibody biosensor incorporating catalytic antibodies as enzyme mimics in a configuration similar to that of enzyme electrodes was used to measure the pH change resulting from the catalyzed hydrolysis of methyl p-nitrophenylcarbonate (MpNPC). […] The catalytic antibody 48G7 is synthesized and its catalytic activity identified in accordance with the methodology described in Example 1.
The catalytic antibody 48G7 produces a relatively small rate of acceleration as compared to natural enzymes. Consequently, the observed pH difference is small but is easily measurable in a reproducible manner. […] Two miniature pH electrodes 152 and 154 were employed and the difference between the two was monitored. […]
The electrical potential of the two miniature pH electrodes 152 and 154 (Microelectrodes Inc., model MI-404) was monitored relative to a single Ag/AgCl reference electrode 156 in an nonthermostated vessel 158 as shown in Fig. 13 using two Keithley 617 electrometers 160. […]
The reference electrode 156 and the two pH electrodes 152 and 154 were placed in 2.5 ml of a pH 8.5 buffer (0.14 M KCl, 0.01 M Tris, 0.02% sodium azide) and allowed to stabilize for […]. […] The response to MpNPC was measured after approximately 12 hours in solution (not shown) but the remainder of the measurements were performed after approximately 36 hours in solution. […]

Where [3] appears, read: 4.4 µM antibody, 10 mM Tris-HCl, pH 8.5 at 30°C, first pair of values printed.
[4] abbreviates: second pair of values printed ("This IgG", designated 48G7).

Molecules are shown by their SMILES.

What is called Km is the substrate concentration at which the rate is half of its maximum. In general, kcat refers to the maximal rate divided by the concentration of active sites. Consider `COC(=O)Oc1ccc([N+](=O)[O-])cc1` [carbonate (1), methyl p-nitrophenylcarbonate], for which, in assay [1] (setting [3]), the Km stood at 660 µM and the kcat was 1.4 ± 0.2 min⁻¹. Besides, the “rate acceleration above background” value in assay [1] (antibody-catalysed versus background rate) is 16,000. In assay [1] (setting [4]), the Km worked out at 350 µM and the kcat turned out to be 29 min⁻¹.
In the case of `COP(=O)(O)Oc1ccc([N+](=O)[O-])cc1` [transition state analog (TSA), methyl p-nitrophenylphosphate], the “inhibition of catalysis (MpNPC hydrolysis)” value in assay [2] was “effectively inhibits the catalysis”.
